Results as given in patent publication US20230045112A1, “DISULFIRAM AND OTHER REDOX-RELATED COMPOSITIONS FOR BRAIN TUMORS” (Texas Tech University System, priority 2014, published 2023).

Legend:
rMGMT = molecular target: T1, rMGMT (Homo sapiens, UniProt P16455); assay: In vitro degradation of DSF treated rMGMT in rabbit reticulocyte lysates; assay type: biochemical
T1 construct: hexa-histidine; made in house; host or cells: E. coli
T1 sequence (P16455 1-207): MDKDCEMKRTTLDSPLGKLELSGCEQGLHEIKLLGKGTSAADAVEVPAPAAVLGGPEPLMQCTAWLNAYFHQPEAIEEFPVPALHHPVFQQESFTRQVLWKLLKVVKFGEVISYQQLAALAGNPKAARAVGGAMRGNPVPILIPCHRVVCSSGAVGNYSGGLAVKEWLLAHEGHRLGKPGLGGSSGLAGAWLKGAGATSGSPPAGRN
Excerpt: DSF-exposed MGMT samples were dialyzed to remove the residual drug prior to the degradation assays. […] The protein bands were quantified by densitometry.
The samples were immunoblotted and probed with MGMT antibodies (right panel). The densitometric quantitation of protein bands on the western blots is shown as a line graph on the left. […] Cell lysates were western blotted for the MGMT protein. […] Kinetics of DNA interstrand crosslinks formed in UW228 cells after treatment with […] BCNU or […] melphalan is shown. […] They were then exposed to BCNU or melphalan. At times specified, the cells were harvested, DNA isolated and the extent of interstrand crosslinking of DNA was determined using the ethidium bromide fluorescence assay. Values are mean+S.D. The results were significant at P<0.05. […] The cells were trypsinized at times indicated and analyzed by flow cytometry.
Since the MGMT inactivated by BG is degraded through ub-proteolysis, it was of interest to investigate the mode of elimination of DSF-modified MGMT protein. Therefore, first, we compared the in vitro degradation of DSF-treated and untreated rMGMT protein in rabbit reticulocyte lysates (RL), which are known to promote the proteasomal degradation. The control and DSF-modified MGMT proteins were incubated with RL in the presence of Mg++, ATP and ubiquitin at 37° C. The reaction mixtures were blotted and probed with MGMT antibodies. […] To show the involvement of the ub-proteolysis in cells a clinically used proteasome inhibitor. […] Taken together, the results presented in FIGS. 4A-4B confirm that DSF-modified MGMT is perceived as a structurally altered/damaged protein in cells and eliminated through the ub-proteasomal route.

[1] = molecular target: T2, purified recombinant MGMT (rMGMT) (Homo sapiens, UniProt P16455); assay: MGMT DNA repair activity ([3H]-methyl transfer), purified recombinant MGMT treated with DSF; assay type: biochemical
T2 construct: hexa-histidine; made in house; host or cells: E. coli
Method: The DNA repair activity of MGMT was measured by the transfer of [3H]-labeled methyl groups from the O^6-position of guanine in the DNA substrate to the MGMT protein as described previously. The DNA substrate enriched in O6-methylguanine was prepared by reacting [3H]-methylnitrosourea (GE Healthcare, 60 Ci/mmol). Briefly, the cell pellets were washed with cold PBS, disrupted by sonication in the assay buffer (30 mM Tris-HCl pH 7.5, 0.5 mM DTT, 0.5 mM EDTA, 5% glycerol, and 20 μM spermidine) and centrifuged. The extracts (50-150 μg protein) were supplemented with the [3H]-DNA (10,000 cpm) and incubated at 37° C. The reactions were terminated by the addition of TCA, the DNA substrate was hydrolyzed at 80° C., and following filtration on glass fiber discs; the radioactivity present in protein precipitates was quantitated.
Cells were trypsinized, washed and MGMT activity was determined in cell extracts (top panel). The same extracts were western blotted for MGMT protein. WB, western blot. […] Cells were exposed to CuDSF and analyzed for MGMT activity and protein as above. […] To delineate the appropriate time for alkylating drug treatments following MGMT inhibition, next, the time course of MGMT depletion by these three interventions was studied.

Cys145 of MGMT = molecular target: T3, Cys145 of MGMT (Homo sapiens, UniProt P16455); assay: BG-PEG-biotin probe binding to MGMT
T3 construct: hexa-histidine; made in house; host or cells: E. coli
T3 sequence (P16455 1-207): T1 sequence (P16455 1-207)

[2] = system: wild-type and mutant p53, NF-κB, and ubiquitin E1; assay: Degradation of redox-sensitive proteins by disulfiram; assay type: cell-based
MGMT = molecular target: T4, MGMT (Homo sapiens, UniProt P16455); assay: MGMT activity and protein in MGMT-proficient human cancer cell lines (HT29, T47D, HCT116); assay type: cell-based; parameters: endogenous in cells; host or cells: HT29, T47D, HCT116
T4 sequence (P16455 1-207): T1 sequence (P16455 1-207)

disappearance of DSF-modified rMGMT protein (rMGMT; 10 minutes of incubation): 30%
disappearance of DSF-modified rMGMT protein (rMGMT; 25 minutes of incubation): 45%
disappearance of DSF-modified rMGMT protein (rMGMT; 40 minutes of incubation): 70%
inhibition at 25 µM [1]: 40%
BG-PEG-biotin labeling of MGMT in cell extracts after drug (Cys145 of MGMT; UW228 cell extracts, 20 minutes): eliminated the western blot signal
degradation of MGMT (MGMT; 200 μM, 12 hours): about 70%
inhibition at 400 µM (MGMT; HT29 and HCT116 cells, 400 μM, 20 hour): 95%
SMILES: CCN(CC)C(=S)SSC(=S)N(CC)CC [DSF, 1,1′,1″,1′″-[disulfanediylbis(carbonothioylnitrilo)]tetraethane]
binding of BG-PEG-biotin probe to purified rMGMT after drug (Cys145 of MGMT; 50 μM DSF, 20 minutes at 37° C., wild type rMGMT): significant reduction in binding of the probe
degradation of redox-sensitive proteins [2]: degraded by disulfiram in a dose-dependent manner
